Measured values taken from ChEMBL document CHEMBL5030532, “Synthesis and Evaluation of Galloyl Conjugates of Flavanones as BMP-2 Upregulators with Promising Bone Anabolic and Fracture Healing Properties” (J Med Chem, 2021).
Active and inactive are the calls of the source. The calls are words filed in the database; no cut-off is given here.

Experiments:
Calvarial osteoblast [1] = assay: Induction of mineralization in rat Calvarial osteoblast cells measured at 10 nM measured for 14 days by Cetylpyridinium chloride method; format: functional, tissue-based; conditions: time 14.0 day
[2] = Induction of osteogeneis in rat calvarial osteoblast cells assessed as fold upregulation of ALP gene expression at 100 pM measured after 48 hrs by qPCR analysis relative to control; format: functional
Calvarial osteoblast [3] = assay: Cytotoxicity against rat Calvarial osteoblast cells assessed as viable cells measured at 0.000001 to 1 uM measure after 48 hrs by cell viability assay; format: cell-based; conditions: dose lower 1e-06 µM, dose upper 1 µM
Calvarial osteoblast [4] = assay: Induction of osteoblast differentiation in rat Calvaria osteoblast cells measured assessed as maximal increase in alkaline phosphatase activity incubated for 48 hrs using PNPP as substrate; format: functional
Calvarial osteoblast [5] = assay: Induction of rat Calvarial osteoblast cell proliferation at 0.000001 to 1 uM measured after 48 hrs by MTT assay; format: functional, tissue-based; conditions: dose lower 1e-06 µM, dose upper 1.0 µM
[6] = Induction of osteogeneis in rat calvarial osteoblast cells assessed as fold upregulation of RUNX2 gene expression at 10 nM measured after 48 hrs by qPCR analysis relative to control; format: functional
[7] = Induction of osteogeneis in rat calvarial osteoblast cells assessed as fold upregulation of Col1 gene expression at 10 nM measured after 48 hrs by qPCR analysis relative to control; format: functional
Calvarial osteoblast [8] = assay: Induction of osteogenesis in rat calvarial osteoblast cells assessed as fold upregulation of BMP-2 gene expression at 10 nM measured after 48 hrs by qPCR analysis relative to control; format: functional
Calvarial osteoblast [9] = assay: Induction of osteoblast differentiation in rat Calvaria osteoblast cells measured assessed as increase in alkaline phosphatase activity at 1 pM incubated for 48 hrs using PNPP as substrate; format: functional, cell-based
Calvarial osteoblast [10] = assay: Induction of osteoblast differentiation in rat Calvaria osteoblast cells measured assessed as increase in alkaline phosphatase activity at 10 pM incubated for 48 hrs using PNPP as substrate; format: functional, cell-based
Calvarial osteoblast [11] = assay: Induction of osteoblast differentiation in rat Calvaria osteoblast cells measured assessed as increase in alkaline phosphatase activity at 0.000001 to 1 uM incubated for 48 hrs using PNPP as substrate; format: functional, cell-based; conditions: dose lower 1e-06 µM, dose upper 1.0 µM
[12] = Induction of osteogeneis in rat calvarial osteoblast cells assessed as fold upregulation of Col1 gene expression at 100 pM measured after 48 hrs by qPCR analysis relative to control; format: functional
[13] = Induction of osteogeneis in rat calvarial osteoblast cells assessed as fold upregulation of BMP-2 gene expression at 100 pM measured after 48 hrs by qPCR analysis relative to control; format: functional
Calvarial osteoblast [14] = assay: Induction of mineralization in rat Calvarial osteoblast cells measured at 100 pM measured for 14 days by Cetylpyridinium chloride method; format: functional, tissue-based; conditions: time 14.0 day
[15] = Induction of osteogeneis in rat calvarial osteoblast cells assessed as fold upregulation of RUNX2 gene expression at 1 pM measured after 48 hrs by qPCR analysis relative to control; format: functional

Question: For `COc1cc(C(=O)Nc2ccc3c(c2)C(O)CC(c2cccc(C)c2)O3)cc(OC)c1OC` (centres undefined), which Activity (Calvarial osteoblast [1]) is on record?
Answer: Active

Question: And the “fold change (FC)” value [2]?
Answer: 2.3

Question: And the Activity (Calvarial osteoblast [3])?
Answer: Non-Toxic

Question: And the ECmax (Calvarial osteoblast [4])?
Answer: 100 pM

Question: And the Activity (Calvarial osteoblast [5])?
Answer: Active

Question: What about the “fold change (FC)” value [6] of the same compound?
Answer: 1.8

Question: And the “fold change (FC)” value [7]?
Answer: 1.55

Question: And the “fold change (FC)” value (Calvarial osteoblast [8])?
Answer: 1.83

Question: Which results are given for `O=C(O)c1cc(O)c(O)c(O)c1`?
Answer: Activity (Calvarial osteoblast [9]): Active; Activity (Calvarial osteoblast [10]): Active

Question: With `COc1cccc([C@@H]2CC(=O)c3cc(NC(=O)c4cc(OC)c(OC)c(OC)c4)ccc3O2)c1` as the compound, how does the Activity (Calvarial osteoblast [11]) read?
Answer: Active

Question: With `COc1cc(C(=O)Nc2ccc3c(c2)C(=O)CC(c2ccccc2)O3)cc(OC)c1OC` (centres undefined) as the compound, how does the “fold change (FC)” value [12] read?
Answer: 1.8

Question: And the “fold change (FC)” value [13]?
Answer: 1.9

Question: What about the “fold change (FC)” value [2] of the same compound?
Answer: 1.3

Question: What about the Activity (Calvarial osteoblast [14]) of the same compound?
Answer: Active

Question: What about the Activity (Calvarial osteoblast [3]) of the same compound?
Answer: Non-Toxic

Question: What about the ECmax (Calvarial osteoblast [4]) of the same compound?
Answer: 10 pM

Question: What about the “fold change (FC)” value [15] of the same compound?
Answer: 2

Question: Which Activity (Calvarial osteoblast [11]) does the source give for `COc1cccc([C@H]2CC(=O)c3cc(NC(=O)c4cc(OC)c(OC)c(OC)c4)ccc3O2)c1` here?
Answer: Active
